Assay results from ChEMBL document CHEMBL3120075 (J Med Chem, 2014).

Assays:
Hepatitis C virus [1] = test: Antiviral activity against HCV genotype 1b Con1 infected in human HuH7 cells assessed as inhibition of viral RNA replication after 3 days by renilla luciferase reporter gene assay; type: functional, organism-based, Hepacivirus hominis; conditions: isolate Con1, Huh-7, 72 h
Hepatitis C virus [2] = test: Antiviral activity against HCV genotype 1a H77 infected in human HuH7 cells assessed as inhibition of viral RNA replication after 3 days by renilla luciferase reporter gene assay; type: functional, organism-based, Hepacivirus hominis; conditions: genotype 1a H77, Huh-7, 72 h
[3] = Ratio of EC50 for HCV genotype 1a to EC50 for HCV genotype 1b; type: functional
[4] = Half life in beagle dog at 0.2 mg/kg, iv; type: ADME, organism-based, Canis lupus familiaris; design: dose 0.2 mg/kg, route intravenous; conditions: in vivo
[5] = Oral bioavailability in Sprague-Dawley rat at 2 mg/kg; type: ADME, organism-based; conditions: in vivo
[6] = Mean residence time in Sprague-Dawley rat at 1 mg/kg, iv; type: ADME, organism-based; design: dose 1 mg/kg, route intravenous; conditions: in vivo
[7] = Volume of distribution at steady state in Sprague-Dawley rat at 1 mg/kg, iv; type: ADME, organism-based; design: dose 1 mg/kg, route intravenous; conditions: in vivo, read-out: Vdss
[8] = Volume of distribution at steady state in beagle dog at 0.2 mg/kg, iv; type: ADME, organism-based, Canis lupus familiaris; design: dose 0.2 mg/kg, route intravenous; conditions: in vivo, read-out: Vdss
[9] = Clearance in beagle dog at 0.2 mg/kg, iv; type: ADME, organism-based, Canis lupus familiaris; design: dose 0.2 mg/kg, route intravenous; conditions: in vivo
[10] = Half life in Sprague-Dawley rat at 1 mg/kg, iv; type: ADME, organism-based; design: dose 1 mg/kg, route intravenous; conditions: in vivo
[11] = Mean residence time in beagle dog at 0.2 mg/kg, iv; type: ADME, organism-based, Canis lupus familiaris; design: dose 0.2 mg/kg, route intravenous; conditions: in vivo
[12] = Clearance in Sprague-Dawley rat at 1 mg/kg, iv; type: ADME, organism-based; design: dose 1 mg/kg, route intravenous; conditions: in vivo

| SMILES | EC50 (Hepatitis C virus [1]) [nM] | EC50 (Hepatitis C virus [2]) [nM] | other results |
| --- | --- | --- | --- |
| COC(=O)N[C@H](C(=O)N1CCC[C@H]1c1nc2ccc(C#CC#Cc3ccc4nc([C@@H]5CCCN5C(=O)[C@@H](NC(=O)OC)C(C)C)[nH]c4c3)cc2[nH]1)C(C)C | 0.026 | 11 |  |
| COC(=O)N[C@H](C(=O)N1CCC[C@H]1c1nc2ccc(-c3ccc(-c4ccc5nc([C@@H]6CCCN6C(=O)[C@@H](NC(=O)OC)C(C)C)[nH]c5c4)cc3)cc2[nH]1)C(C)C | 0.009 | 0.5 |  |
| COC(=O)N[C@H](C(=O)N1CCC[C@H]1c1nc2ccc(-c3ccc(-c4ccc(-c5ccc6nc([C@@H]7CCCN7C(=O)[C@@H](NC(=O)OC)C(C)C)[nH]c6c5)cc4)cc3)cc2[nH]1)C(C)C | 0.044 | 3.7 |  |
| C[C@H](NC(=O)c1ccc(Sc2ccc(N)cc2)c(Nc2ncnc3nc(C(C)(C)C)ccc23)c1)c1ccccc1 | 3 | 46 |  |
| C[C@H](NC(=O)OCc1ccccc1)C(=O)Nc1cccc(C2S/C(=N\c3cccc(F)c3)N(Cc3ccco3)C2=O)c1 (some centres undefined) | 580 |  | Ratio EC50 [3]: 1000 |
| COC(=O)N[C@H](C(=O)N1CCC[C@H]1c1ncc(C#Cc2ccc(-c3ccc4nc([C@@H]5CCCN5C(=O)[C@@H](NC(=O)OC)C(C)C)[nH]c4c3)cc2)[nH]1)C(C)C | 0.016 | 2.5 |  |
| COC(=O)N[C@H](C(=O)N1CCC[C@H]1c1nc(-c2ccc3cc(-c4ccc5[nH]c([C@@H]6CCCN6C(=O)[C@@H](NC(=O)OC)C(C)C)nc5c4)ccc3c2)c[nH]1)C(C)C | 0.007 | 0.071 |  |
| COC(=O)N[C@H](C(=O)N1CCC[C@H]1c1nc2ccc(-c3ccc4cc(-c5ccc6nc([C@@H]7CCCN7C(=O)[C@@H](NC(=O)OC)C(C)C)[nH]c6c5)ccc4c3)cc2[nH]1)C(C)C | 0.004 | 0.11 |  |
| COC(=O)N[C@H](C(=O)N1CCC[C@H]1c1nc2ccc(C#Cc3ccc4nc([C@@H]5CCCN5C(=O)[C@@H](NC(=O)OC)C(C)C)[nH]c4c3)cc2[nH]1)C(C)C | 0.14 | > 44 |  |
| COC(=O)N[C@H](C(=O)N1CCC[C@H]1c1nc2ccc(-c3ccc(-c4ccc(-c5cnc([C@@H]6[C@H]7CC[C@H](C7)N6C(=O)[C@@H](NC(=O)OC)C(C)C)[nH]5)cc4)cc3)cc2[nH]1)C(C)C | 0.021 | 0.66 |  |
| COC(=O)N[C@H](C(=O)N1CCC[C@H]1c1nc2ccc(-c3ccc4nc([C@@H]5CCCN5C(=O)[C@@H](NC(=O)OC)C(C)C)[nH]c4c3)cc2[nH]1)C(C)C | 35 | > 44 |  |
| O=C(Nc1ccncc1)c1ccc(-c2csc(NC(=O)[C@@H]3CCCN3C(=O)OCc3ccccc3)n2)cc1 | 80 |  | Ratio EC50 [3]: 1000 |
| CN(C)[C@@H](C(=O)N1CCC[C@H]1C(=O)Nc1ccc(/C=C/c2ccc(NC(=O)[C@@H]3CCCN3C(=O)[C@@H](c3ccccc3)N(C)C)cc2)cc1)c1ccccc1 | 0.1 |  |  |
| Cc1ccc(O)c(-c2nn(C)cc2C#Cc2ccc(NC(=O)[C@@H]3COCCN3C(=O)[C@H](NC(=O)OC(C)(C)C)c3ccccc3)cc2)c1 | < 1000 |  | Ratio EC50 [3]: 1000 |
| COC(=O)N[C@H](C(=O)N1CCC[C@H]1c1nc2ccc(-c3ccc(-c4ccc5nc([C@@H]6CCCN6C(=O)[C@@H](NC(=O)OC)C(C)C)[nH]c5c4)s3)cc2[nH]1)C(C)C | 0.01 | 1.7 |  |
| COC(=O)N[C@H](C(=O)N1CCC[C@H]1c1ncc(-c2ccc(-c3ccc(-c4cnc([C@@H]5[C@H]6CC[C@H](C6)N5C(=O)[C@@H](NC(=O)OC)C(C)C)[nH]4)cc3)cc2)[nH]1)C(C)C | 0.009 | 0.21 | half-life [4]: 5.29 h; bioavailability [5]: 35.2%; MRT [6]: 1.4 h; Vd [7]: 0.98 L/kg; Vd [8]: 0.31 L/kg; clearance [9]: 0.833 mL/min/kg; half-life [10]: 1.49 h; MRT [11]: 6.6 h; clearance [12]: 11.7 mL/min/kg |
| COC(=O)N[C@H](C(=O)N1CCC[C@H]1c1nc2ccc(-c3cc4cc5sc(-c6ccc7nc([C@@H]8CCCN8C(=O)[C@@H](NC(=O)OC)C(C)C)[nH]c7c6)cc5cc4s3)cc2[nH]1)C(C)C | 0.016 | 0.2 |  |
| COC(=O)N[C@H](C(=O)N1CCC[C@H]1c1ncc(-c2ccc(-c3ccc(-c4ccc5nc([C@@H]6[C@H]7CC[C@H](C7)N6C(=O)[C@@H](NC(=O)OC)C(C)C)[nH]c5c4)cc3)cc2)[nH]1)C(C)C | 0.006 | 0.16 | half-life [4]: 4.01 h; bioavailability [5]: 26.3%; MRT [6]: 2.42 h; Vd [7]: 1.81 L/kg; Vd [8]: 2.03 L/kg; clearance [9]: 6.67 mL/min/kg; half-life [10]: 2.07 h; MRT [11]: 5.47 h; clearance [12]: 12.5 mL/min/kg |

Now from value to compound, other results behind:

| EC50 (Hepatitis C virus [1]) [nM] | EC50 (Hepatitis C virus [2]) [nM] | SMILES | other results |
| --- | --- | --- | --- |
| 0.003 | 0.2 | COC(=O)N[C@H](C(=O)N1CCC[C@H]1c1ncc(-c2ccc(-c3ccc(-c4ccc5nc([C@@H]6CCCN6C(=O)[C@@H](NC(=O)OC)C(C)C)[nH]c5c4)s3)cc2)[nH]1)C(C)C |  |
| 0.013 | 0.094 | COC(=O)N[C@H](C(=O)N1CCC[C@H]1c1ncc(-c2ccc3c(c2)Cc2cc(-c4cnc([C@@H]5CCCN5C(=O)[C@@H](NC(=O)OC)C(C)C)[nH]4)ccc2-3)[nH]1)C(C)C |  |
| 0.007 | 0.17 | COC(=O)N[C@H](C(=O)N1CCC[C@H]1c1ncc(-c2ccc(-c3ccc(-c4ccc5nc([C@@H]6CCCN6C(=O)[C@@H](NC(=O)OC)C(C)C)[nH]c5c4)cc3)cc2)[nH]1)C(C)C | half-life [4]: 2.3 h; bioavailability [5]: 11.5%; MRT [6]: 1.71 h; Vd [7]: 1.76 L/kg; Vd [8]: 2.31 L/kg; clearance [9]: 13 mL/min/kg; half-life [10]: 1.57 h; MRT [11]: 3 h; clearance [12]: 17.3 mL/min/kg |
| 0.011 | 0.38 | COC(=O)N[C@H](C(=O)N1CCC[C@H]1c1ncc(-c2ccc(C#Cc3ccc4nc([C@@H]5CCCN5C(=O)[C@@H](NC(=O)OC)C(C)C)[nH]c4c3)cc2)[nH]1)C(C)C |  |
| 0.005 | 0.45 | COC(=O)N[C@H](C(=O)N1CCCC[C@H]1c1ncc(-c2ccc(-c3ccc(-c4cnc([C@@H]5CCCN5C(=O)[C@@H](NC(=O)OC)C(C)C)[nH]4)cc3)cc2)[nH]1)C(C)C |  |
| 0.018 | 0.3 | COC(=O)N[C@H](C(=O)N1CCC[C@H]1c1ncc(-c2ccc3c(c2)C(=O)c2cc(-c4cnc([C@@H]5CCCN5C(=O)[C@@H](NC(=O)OC)C(C)C)[nH]4)ccc2-3)[nH]1)C(C)C |  |
| 0.3 | > 44 | COC(=O)N[C@H](C(=O)N1CCC[C@H]1c1ncc(-c2ccc(-c3ccc4nc([C@@H]5CCCN5C(=O)[C@@H](NC(=O)OC)C(C)C)[nH]c4c3)cc2)[nH]1)C(C)C |  |
| 0.003 | 0.04 | COC(=O)N[C@H](C(=O)N1CCC[C@H]1c1ncc(-c2ccc3c(c2)C(F)(F)c2cc(-c4ccc5nc([C@@H]6CCCN6C(=O)[C@@H](NC(=O)OC)C(C)C)[nH]c5c4)ccc2-3)[nH]1)C(C)C | half-life [4]: 2.63 h; bioavailability [5]: 36.7%; MRT [6]: 2.21 h; Vd [7]: 0.93 L/kg; Vd [8]: 1.96 L/kg; clearance [9]: 8.83 mL/min/kg; half-life [10]: 1.83 h; MRT [11]: 3.69 h; clearance [12]: 7 mL/min/kg |
| 0.014 | 1.2 | COC(=O)N[C@H](C(=O)N1CCC[C@H]1c1ncc(-c2ccc3c(c2)C(C)(C)c2cc(-c4cnc([C@@H]5CCCN5C(=O)[C@@H](NC(=O)OC)C(C)C)[nH]4)ccc2-3)[nH]1)C(C)C |  |
